Measured values: ChEMBL document CHEMBL3875178, “Discovery of oral-available resveratrol-caffeic acid based hybrids inhibiting acetylated and phosphorylated STAT3 protein” (Eur J Med Chem, 2016)

Experiments:
[1] = Growth inhibition of human HT-29 cells after 48 hrs by MTT assay; assay type: functional, cell-based; settings: HT-29, 48 h
[2] = Growth inhibition of human MDA-MB-231 cells after 48 hrs by MTT assay; assay type: functional, cell-based; settings: MDA-MB-231, 48 h
Mus musculus = assay: Toxicity in Kunming mouse implanted with mouse 4T1 cells assessed as body weight loss at 1 mg/kg, ip administered once in 4 days for 14 days measured during compound dosing; assay type: organism-based; settings: in vivo
HT-29 = assay: Potency index, ratio of resveratrol IC50 to compound IC50 for human HT-29 cells; assay type: functional

Structure (SMILES) | IC50 [1] [µM] | IC50 [2] [µM] | Activity (Mus musculus) | Ratio IC50 (HT-29)
COc1cc(/C=C/c2ccc(NC(=O)/C=C/c3ccc(C(F)(F)F)cc3)cc2)cc(OC)c1 | 1.78 | 3.52 | – | –
COc1cc(/C=C/c2ccc(NC(=O)/C=C/c3ccccc3F)cc2)cc(OC)c1 | 2.82 | 2.38 | – | –
COc1cc(/C=C/c2ccc(NC(=O)/C=C/c3ccc([N+](=O)[O-])cc3)cc2)cc(OC)c1 | 10.7 | 11.7 | – | –
COc1cc(/C=C/c2ccc(OC(=O)/C=C/c3ccc([N+](=O)[O-])cc3)cc2)cc(OC)c1 | > 20 | 18 | – | –
COc1cc(/C=C/c2ccc(NC(=O)/C=C/c3ccccn3)cc2)cc(OC)c1 | 6.12 | 3.4 | – | –
COc1cccc2c1C(=O)c1c(O)c3c(c(O)c1C2=O)C[C@@](O)(C(=O)CO)C[C@@H]3O[C@H]1C[C@H](N)[C@H](O)[C@H](C)O1 [DOXORUBICIN] | – | – | Toxic | –
COc1cc(/C=C/c2ccc(NC(=O)/C=C/c3ccc(Br)cc3)cc2)cc(OC)c1 | 5.26 | 6.16 | – | –
COc1cc(/C=C/c2ccc(NC(=O)/C=C/c3cc(OC)c(O)c(OC)c3)cc2)cc(OC)c1 | 3.08 | 7.13 | – | –
COc1cc(/C=C/c2ccc(NC(=O)/C=C/c3ccc(Cl)cc3)cc2)cc(OC)c1 | 10.3 | 14.1 | – | –
COc1ccc(/C=C/C(=O)Nc2ccc(/C=C/c3cc(OC)cc(OC)c3)cc2)cc1 | 5.96 | 4.23 | – | –
COc1cc(/C=C/c2ccc(NC(=O)/C=C/c3ccc(OC)c(OC)c3)cc2)cc(OC)c1 | 0.96 | 7.74 | – | >50
COc1cc(/C=C/c2ccc(NC(=O)/C=C/c3cccc(F)c3)cc2)cc(OC)c1 | 16.8 | 17.3 | – | –
